# Source: patent EP2628732A1, “Novel crystalline form of rilpivirine hydrochloride” (Sandoz AG, priority 2012, dated 2013)
# Legend:
# [1] = Solubility determination in 0.01 N aqueous HCl (gravimetric, suspensions stirred, sampled after 30 min); format: physicochemical; details: 0.01 N aqueous HCl at 25 ± 0.1 °C, samples taken after 30 min, monohydrochloride
# Protocol: The solubility data of form E of the present invention and forms A and C of EP1632232 B1 in 0.01 N aqueous HCl at 25 ± 0.1 °C are presented in table 1. Table 1: Solubility data in 0.01 N aqueous HCl at 25 ± 0.1 °C Suspensions of forms A, C and E in 0.01 N aqueous HCl were stirred in closed vessels with a diameter of 25 mm in a thermostatic water bath at 25 ± 0.1 °C. Before the solute was added the solvent was equilibrated to the temperature. Three samples of each modification were taken with […] filter holders attached to volumetric pipettes (2 mL) via a small glass tube after 30 min. They were sucked through Millipore membrane filters (0.45 μm) and 2 mL of the clear solution were poured in vessels which had been dried and tared before. The hydrochloric acid was evaporated in a drying chamber at 60 °C for approximately 15 h before the temperature was further increased to 80 °C for approximately 3 h. To remove residue water, the vessels were subsequently dried at 110 °C and 60 mbar for approximately 3 h. Afterwards the vials with the residue were cooled to room temperature in an exsiccator and weighed on an analysis balance (Mettler AT250). The difference in weight to the tare weight was then measured to determine the solubilities.
# [2] = Water content at defined relative humidity; format: physicochemical
compound,measurement,setting,value
"Cc1cc(C=CC#N)cc(C)c1Nc1ccnc(Nc2ccc(C#N)cc2)n1.Cl [Form A, 4-[[4-[[4-(2-Cyanoethenyl)-2,6-dimethylphenyl]amino]-2-pyrimidinyl]amino]benzonitrile monohydrochloride]",Solubility,[1]; listed as A,80 µg/mL
"Cc1cc(C=CC#N)cc(C)c1Nc1ccnc(Nc2ccc(C#N)cc2)n1.Cl [Form C, 4-[[4-[[4-(2-Cyanoethenyl)-2,6-dimethylphenyl]amino]-2-pyrimidinyl]amino]benzonitrile monohydrochloride]",Solubility,[1]; listed as C,100 µg/mL
"Cc1cc(C=CC#N)cc(C)c1Nc1ccnc(Nc2ccc(C#N)cc2)n1.Cl [Form E, 4-[[4-[[4-(2-Cyanoethenyl)-2,6-dimethylphenyl]amino]-2-pyrimidinyl]amino]benzonitrile monohydrochloride]",water,[2]; at a relative humidity of about 0 %,about 0%
same,water,[2]; at a relative humidity of about 90 %,about 0.8%
same,Solubility,[1]; listed as E,270 µg/mL
